Patent US11419883B2, “Inhibiting senescent processes in beta cells for the prevention of type 1 diabetes” (The Regents of the University of California, priority 2017, dated 2022)

Assays:
NOD islets [1] = test: NOD islets treated with BH3 mimetics, senescence marker mRNA; format: cell-based, mouse; details: NOD islets treated with BH3 mimetic
Source text: Example 4. BH3 mimetics preferentially eliminate SASP beta cells in NOD mice. To determine the role of SASP cells in the development of T1D, we next explored whether pro-survival checkpoints could be exploited to promote selective deletion of senescent beta cells. […] The Bcl-2 family contains a hydrophobic groove called the BH3 domain and ‘BH3 mimetics’ are pharmacological compounds that mimic the binding of the BH3-only initiator proteins to the pro-survival members. The BH3 mimetics can trigger apoptosis with some specificity in cells that have high levels of Bcl-2 or the related members. A number of small molecule inhibitors that target Bcl-2, Bcl-xL, Bcl-w or Mcl-1 proteins have been developed and some of them have been used to preferentially trigger apoptosis in senescent cells, both in vitro and in vivo. To determine which Bcl-2 pro-survival members were relevant to SASP islet cells, we treated NOD islets with BH3 mimetics that had different specificities. ABT-737 targets Bcl-2 and family members Bcl-xL and Bcl-w, ABT-199 selectively targets Bcl-2, and Maritoclax targets only Mcl-1. […]

SASP beta cells = test: ABT-737 oral gavage in NOD mice, immunostaining of senescence and SASP markers in beta cells; format: in vivo; details: oral gavage for 1 week
Protocol: To determine whether ABT-737 targeted SASP beta cells for apoptosis in vivo, NOD mice were administered ABT-737 via oral gavage for 1 week followed by analysis of senescence and SASP markers by immunostaining.

[2] = test system: CD45-depleted islet cells; test: SASP factors in conditioned media from CD45-depleted islet cells of treated NOD mice; format: in vivo; details: compared to vehicle control mice
Protocol: The secretome of islet cells from the 14-16 week NOD mice was analyzed. Islets depleted of CD45^+ cells were cultured in serum-free media and the resulting culture supernatant, hereafter referred to as conditioned media (CM) was analyzed using a bead-based multi-analyte luminex assay including a variety of key SASP factors and immune cell-specific non-SASP factors (IL-2, Granzyme B). Consistent with the immunohistochemistry analysis, the secretion of SASP factors (IL-6, Serpine1, G-CSF, Ccl2, Mmp9, Mmp12 and Igfpb3) was dramatically higher in the CD45-depleted islet cell populations from 14-week NOD mice as compared with 8-week mice. To determine the time-course of the stress response and SASP in beta cells, younger cohorts of 10 and 12-week old euglycemic NOD mice were analyzed by immunostaining for Cdknla and IL-6.
(§1) Similarly, THP1 chemotaxis activity was reduced in the CM upon ABT-737 treatment of islets relative to vehicle-treated islets ex vivo.

[3] = test system: NOD MEFs and 8-week NOD islet cells; test: Paracrine senescence activity of conditioned media from islet cells of treated mice; format: cell-based, mouse; details: CM from CD45-depleted islet cells of treated mice, on NOD MEFs and 8-week NOD islet cells
Protocol: Example 3. Non-cell autonomous activities of islet SASP. To address whether the SASP of beta cells had non-cell autonomous effects resembling SASP, the ability of secreted factors from CD45-depleted islet cells of 14 wk NOD mice to induce senescence in NOD mouse embryonic fibroblasts (MEFs) and in 8 week NOD islets (when senescence is not observed) was assessed. When early passage NOD MEFs were cultured in the presence of CM from 14 wk CD45-depleted NOD islet cells (NCM) they induced Cdkn1a and Cdkn2a expression and increased SA-βgal activity, similarly to the senescent MEF CM control (SCM). The NCM was also capable of increasing the proportion of SA-βgal^+ cells in the cultured islets from 8 week old NOD mice.
as §1

human THP-1 cell line = test: THP1 monocyte chemotaxis (transwell) with conditioned media of treated islets; format: cell-based; details: treatment of islets ex vivo, relative to vehicle-treated islets
Protocol: The ability of CM from NOD islet cells and human islets to induce monocyte chemotaxis using the transwell assay was tested using the human THP-1 cell line. NCM was capable of stimulating chemotaxis 3-fold over the SFM control, similarly to the positive control, serum-free media conditioned with recombinant mouse CCL2. In addition, CM from human islets expressing SASP induced THP1 chemotaxis ˜5-fold over the SFM control.
as §1

NOD islets [4] = test: Apoptosis in islets of treated NOD mice (Annexin V/propidium iodide flow cytometry, TUNEL); format: in vivo
Protocol: FIG. 1 depicts the abundance of apoptotic cells (Annexin V^+) in the CD45-(endocrine enriched) fractions of NOD islets treated with ABT-737 for two weeks, compared to control vehicle-treated mice (n=2 mice per group), error bars are s.d. *p<0.05, two-tailed T-test.
(§2) Example 5. Targeted depletion of SASP beta cells prevents diabetes in NOD mice The impact of senolytic treatments on immune cells was assessed. In islets from NOD mice treated with ABT-737, there was a 2-fold increase in apoptotic cells, as measured by flow cytometry for Annexin V and propidium iodide, in the endocrine compartment compared to vehicle control mice (FIG. 1). […] Flow cytometry was then used to examine the distributions and proportions of main lymphoid cell types involved in T1D in the spleen, pancreatic lymph nodes, and islets from vehicle control and ABT-737- and ABT-199-treated mice.

immune compartment = test: Flow cytometry of immune cell types in spleen, pancreatic lymph nodes and islets of treated mice; format: in vivo, NOD mice; details: pancreatic lymph nodes, islets; for proportions or balance of effector T cells, B cells and regulatory T cells: relative to vehicle control mice
Protocol: as §2

NOD mice = test: Diabetes incidence in NOD mice after senolytic treatment; format: in vivo
Protocol: FIG. 2 depicts the incidence of diabetes in a cohort of NOD mice treated with ABT-199 (n=5) or vehicle (n=5).
For studies using ABT-737, 10 week old euglycemic NOD/ShiltJ mice were given oral gavage of 100 mg/kg ABT-737 or vehicle (30% propylene glycol, 5% Tween-80 and 65% D5W) for 3 consecutive days followed by a break for 4 days and then again treated for 3 days (a total of 6 doses), and then untreated for 2 weeks followed by three consecutive days of ABT-737 or vehicle treatment and then allowed to age without further treatment until 28 weeks of age.
To determine whether clearance of SASP beta cells prevented diabetes, 10 week euglycemic NOD mice were administered ABT-737 by oral gavage for two weeks, followed by another dose at 16 weeks and allowed to age. Strikingly, while 60% of vehicle control mice were diabetic at this time, only 40% of ABT-737-treated mice became diabetic. We performed a similar study with ABT-199, administering the drug by oral gavage for 2 weeks from 11-13 weeks of age and allowing the mice to age to 30 weeks. Remarkably, while 100% of the controls became diabetic by 28 weeks, only 10% of the ABT-199-treated mice were diabetic (FIG. 2).

[5] = test system: normal human donor islets; test: Bleomycin-induced senescence and SASP in normal human donor islets; format: cell-based
Protocol: Next, normal human donor islets were treated with the chemotherapeutic agent bleomycin to induce double-strand DNA breaks and monitored the development of stress-induced senescence and SASP by qRT-PCR and secretion assays after 5 days, coinciding with the typical onset of SASP.

| Compound | Cdkn1a mRNA from treated islets (NOD islets [1]) | Cdkn2a mRNA from treated islets (NOD islets [1]) | Cdkn2a expression in beta cells (immunostaining) (SASP beta cells) | reduction in Cdkn2a+ beta cells (SASP beta cells; quantification) | SASP marker Mmp2+ beta cells (SASP beta cells; relative to controls) | levels of SASP factors in CM from CD45-depleted islet cells [2] | paracrine senescence activity of CM [3] | THP1 chemotaxis activity of CM (human THP-1 cell line) | increase in apoptotic cells (Annexin V+) in the endocrine compartment (NOD islets [4]; CD45- fraction of NOD islets, treated two weeks, compared to vehicle control mice) | TUNEL staining of apoptotic islet cells (NOD islets [4]; pancreata from treated mice) | apoptosis in the immune compartment (NOD islets [4]; relative to vehicle controls) | proportions of macrophages or dendritic cells (immune compartment) | proportions or balance of effector T cells, B cells and regulatory T cells (immune compartment) | treated mice that became diabetic (NOD mice; 10 week NOD mice, oral gavage two weeks plus another dose at 16 weeks, 60% of vehicle controls diabetic) | expression of CDKN1A and CDKN2A (qRT-PCR) ([5]; after 5 days) | SASP factors IL-6, IL-8, IL-1β and TNFα in CM (Luminex) ([5]; compared with control islet CM) | treated mice diabetic (NOD mice; dosed 2 weeks from 11-13 weeks of age, by 28 weeks, 100% of controls diabetic) |
| --- | --- | --- | --- | --- | --- | --- | --- | --- | --- | --- | --- | --- | --- | --- | --- | --- | --- |
| O=C(c1ccccc1O)c1[nH]c(Cl)c(Cl)c1-n1c(C(=O)c2ccccc2O)cc(Cl)c1Cl [Maritoclax] | did not have effects | did not have effects |  |  |  |  |  |  |  |  |  |  |  |  |  |  |  |
| CN(C)CC[C@H](CSc1ccccc1)Nc1ccc(S(=O)(=O)NC(=O)c2ccc(N3CCN(Cc4ccccc4-c4ccc(Cl)cc4)CC3)cc2)cc1[N+](=O)[O-] [ABT-737] | significant reduction | significant reduction | marked reduction | over 40% | only rarely detected | lower levels of most of the SASP factors | diminished | reduced | 2 fold | showed TUNEL^+ cells within the islet | no significant differences | no changes | no significant changes | 40% |  |  |  |
| bleomycin |  |  |  |  |  |  |  |  |  |  |  |  |  |  | induced expression | increased levels |  |
| CC1(C)CCC(CN2CCN(c3ccc(C(=O)NS(=O)(=O)c4ccc(NCC5CCOCC5)c([N+](=O)[O-])c4)c(Oc4cnc5[nH]ccc5c4)c3)CC2)=C(c2ccc(Cl)cc2)C1 [ABT-199] | significant reduction | significant reduction |  |  |  | lower levels of most of the SASP factors |  |  |  |  |  | no changes | no significant changes |  |  |  | 10% |
